The values below come from patent US20160038448A1, “THE INHIBITION OF THE TOXIC EFFECTS OF ISLET AMYLOID FORMATION BY FLURBIPROFEN AND FLURBIPROFEN DERIVATIVES” (The Research Foundation for the State University of New York, priority 2013, published 2016).

The structures appear in SMILES notation. Substitutions are numbered along the chain they refer to. “Also recorded” adds a separate entry of the source. Where a SMILES comes first, the peptide text is derived from it. Bridges are numbered along the chain shown (N, C = ends).

Data set [1] concerns the target T1, human IAPP (Homo sapiens, UniProt P10997).
T1 construct: Mature, fully processed, Amylin is 37 residues in length, contains a disulfide bond between residues 2 and 7; made in house; host or cells: chemical solid-phase peptide synthesis (Fmoc), no expression host
T1 sequence (P10997 34-70 limits assumed): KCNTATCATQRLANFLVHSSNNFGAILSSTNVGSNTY
Briefly: Fluorescence detected thioflavin-T assay of the time course of amyloid formation. In kind it is biochemical. The procedure:
Peptides were first dissolved in 100% hexafluoroisopropanol (HFIP) at a concentration 1.6 mM and then filtered to remove any preformed amyloid aggregates. For thioflavin-T fluorescence assays, aliquots were lyophilized and redissolved in pH 7.4, 20 mM Tris-HCl buffer at the desired concentration. Aspirin and Ketoprofen were prepared in 100% dimethyl sulfoxide (DMSO).
Solutions were prepared by adding pH 7.4, 20 mM Tris buffer and thioflavin-T to lyophilized dry peptides for a final peptide concentration of […]. For the studies of Aspirin and Ketoprofen, 0.25% DMSO was present in the solution. Measurements were made at 25° C. using a Beckman Coulter DTX880 plate reader without stirring. An excitation filter of 430 nm and an emission filter of 485 nm were used. To test disaggregate activity of Aspirin, peptide was first incubated in low-binding 96-wells plate and monitored by plate reader to ensure the formation of amyloid fibrils.
A mixture of flurbiprofen (1-20 parts) and human IAPP (1 part) was monitored by fluorescence detected thioflavin-T assays. The assays monitored the time course of amyloid formation (amount vs time) in the presence and absence of flurbiprofen.
A mixture of OH-flurbiprofen and human IAPP were monitored by fluorescence detected thioflavin-T assays. Three different concentrations (1:1 ratio, 1:10 ratio and 1:20 ratio of IAPP to OH-flurbiprofen) were tested against human IAPP without any added OH-flurbiprofen. The assays monitored the time course of amyloid formation (amount vs time) in the presence and absence of a flurbiprofen derivative.
Three different mixtures of NSAIDs (20 parts) and human IAPP (1 parts) were compared to each other and human IAPP alone by fluorescence detected thioflavin-T assays. The assays monitored the time course of amyloid formation (amount vs time) in the presence and absence of aspirin, naproxen and flurbiprofen.

Data set [2] relates to rat INS-1 beta-cells. Briefly: AlamarBlue cell viability of beta-cells given aliquots of the IAPP amyloid time course. The class given is cell-based. To be noted: for presence and toxic effects of intermediates of amyloid formation: human IAPP with compound. The procedure: FIG. 5. […] (A) A thioflavin-T monitored time course of amyloid formation in the presence and absence of flurbiprofen. […] 20 mM Tris-HCl buffer with 0.25% DMSO was used as the control.
The presence of toxic intermediates is reduced when amyloid formation is accelerated by use of flurbiprofen or a flurbiprofen derivative. A thioflavin-T monitored time course of amyloid formation by human IAPP was conducted in the presence and absence of flurbiprofen. Aliquots were removed at various time points and applied to rat INS-1 beta-cells; at thirty minutes, at 12 hours, at 48 hours. Cell viability as judged by AlamarBlue assays. 20 mM Tris-HCl buffer with 0.25% DMSO was used as the control.

Data set [3] addresses T1, human IAPP. Kind of data set: One and two dimensional IR spectroscopy of fibers formed with flurbiprofen. Conditions: IAPP:flurbiprofen 1:20; 0.5 mm human IAPP and 10 mM flurbiprofen. As for the experimental part: One and two dimensional infrared (IR) spectroscopy was used to confirm the presence of beta-sheet structure. Amyloid is rich in beta-sheet structure. IR spectra were recorded of a mixture of […] human IAPP and 10 mM flurbiprofen.

Data set [4] has as its target T1, human IAPP. Kind of data set: Seeding experiments monitored by thioflavin-T. To be noted: 10% seeds by mass from 1:20 IAPP:flurbiprofen mixture. The class given is biochemical. The procedure:
Seeding experiments were conducted using the products of the experiment conducted with the mixture of flurbiprofen (20 parts) and human IAPP. Seeding refers to the addition of a small […] of pre-formed amyloid fibers to an initially unaggerated solution of polypeptide. Addition of the amyloid fibers leads to a by passing of the lag phase. […] 10% seeds, by mass, were added to unaggerated human IAPP and amyloid formation monitored by fluorescence detected thioflavin-T assays.

Data set [5] is described as follows: NMR spectra and pulse field gradient NMR diffusion (aggregation of the compound). The class given is physicochemical. The procedure: Flurbiprofen was dissolved at 32 micro molar and at 640 micromolar and Nuclear Magnetic Resonance (NMR) spectra were recorded.
A sample of 640 micromolar Flurbiprofen was prepared and pulse field gradient NMR experiments were conducted to determine the diffusion coefficient of the compound. The diffusion coefficient is directly related to the hydrodynamic radius of the compound. The NMR intensity decay curve was monitored for the methyl group NMR signal. The best fit to the data yields a hydrodynamic radius of 3.9 Å.

The target in data set [6] is T2, I26P human IAPP point mutant (Homo sapiens, UniProt P10997, I59P).
T2 construct: Mature, fully processed, Amylin is 37 residues in length, contains a disulfide bond between residues 2 and 7
T2 sequence (P10997 34-70 I59P): T1 sequence (P10997 34-70 limits assumed) with I26P
Briefly: Thioflavin-T assay and TEM with non-amyloidogenic point mutant. The class given is biochemical. Conditions: 20 fold excess of Flurbiprofen; vesicles as control experiment. As for the experimental part: The […] human IAPP point mutant was incubated with Flurbiprofen (20 fold excess of Flurbiprofen) and the mixture was monitored by fluorescence detected thioflavin-T assays. […] Transmission electron microscopy was used to confirm the absence of amyloid. The […] human IAPP point mutant was incubated with 100 nm vesicles composed of 100% anionic lipids as a control experiment. The mixture was monitored by fluorescence detected thioflavin-T assays. […] Transmission electron microscopy was used to confirm the presence of amyloid.

Data set [7] addresses T3, A-beta(1-40) (Homo sapiens, UniProt P05067).
T3 construct: A mixture of flurbiprofen (20 parts) and A-beta(1-40) (1 part)
Briefly: Thioflavin-T assay of A-beta(1-40) amyloid formation. In kind it is biochemical. To be noted: flurbiprofen 20 parts, A-beta(1-40) 1 part. An excerpt: A mixture of flurbiprofen (20 parts) and A-beta(1-40) (1 part) was monitored by fluorescence detected thioflavin-T assays. The assays monitored the time course of amyloid formation (amount vs time) in the presence and absence of flurbiprofen.

The target of data set [8] is T4, 3XL-IAPP mutant (F15L, F23L, Y37L human IAPP) (Homo sapiens, UniProt P10997, F48L/F56L/Y70L).
T4 construct: Mature, fully processed, Amylin is 37 residues in length, contains a disulfide bond between residues 2 and 7
T4 sequence (P10997 34-70 F48L/F56L/Y70L): T1 sequence (P10997 34-70 limits assumed) with F15L, F23L, Y37L
Kind of data set: Thioflavin-T assay of mutant human IAPP amyloid formation (3XL). In kind it is biochemical. Conditions: 1:20 mixture of mutant with flurbiprofen. An excerpt: (§1) A mixture of flurbiprofen (20 parts) and human IAPP (1 part) was monitored by fluorescence detected thioflavin-T assays. The assays monitored the time course of amyloid formation (amount vs time) in the presence and absence of flurbiprofen. The effect of flurbiprofen in wild-type (WT) human IAPP, and in two mutants of human IAPP was monitored. In one mutant, all of the aromatic amino acids in human IAPP were replaced by […] human IAPP was examined. A second mutant in which […] human IAPP) was also tested.

In data set [9] the test system is 3XL-IAPP mutant (F15L, F23L, Y37L human IAPP). The description is as above. The class given is biochemical. To be noted: WT human IAPP and mutant IAPP compared.
Text: as §1

Data set [10] deals with T5, H18Q human IAPP (Homo sapiens, UniProt P10997, H51Q).
T5 construct: Mature, fully processed, Amylin is 37 residues in length, contains a disulfide bond between residues 2 and 7
T5 sequence (P10997 34-70 H51Q): T1 sequence (P10997 34-70 limits assumed) with H18Q
Kind of data set: Thioflavin-T assay of mutant human IAPP amyloid formation (H18Q). In kind it is biochemical. To be noted: 1:20 mixture of mutant with flurbiprofen.
Text: as §1

In data set [11] the test system is human IAPP transgenic mouse islets. Kind of data set: Amyloid formation induced in human IAPP transgenic mouse islets. The class given is cell-based. Conditions: example in present tense. An excerpt:
Amyloid formation is induced in human IAPP transgenic mouse islets in the presence and absence of flurbiprofen or a flurbiprofen derivative.

The subject of data set [12] is human islet cell transplants. Briefly: Mice transplanted with human islet cell transplants. The class given is in vivo, mouse. To be noted: example in present tense. As for the experimental part:
Mice transplanted with human islet cell transplants are treated with flurbiprofen or a flurbiprofen derivative.

Data set [13] in a line: Parallel biophysical and cell viability experiments on h-IAPP variants. In kind it is cell-based. The procedure: Parallel biophysical and cell viability experiments were conducted using a range of conditions that alter the length of the lag phase. h-IAPP amyloid kinetics are concentration-dependent. Decreasing the peptide concentration leads to an increase in the length of the lag phase, while an increase in human-IAPP concentration leads to a shortening of the lag phase. The length of the lag phase can also be controlled by altering the temperature. Lower temperatures lead to a longer lag phase; the lag phase is 2-fold longer at 15° C. […] A set of rationally designed Ser-20 mutations were used. Ser-20 is located at a critical position in the h-IAPP sequence and modulates its aggregation kinetics. […] Toxicity and kinetics experiments were performed on the Ser-20 mutants. […] An human-IAPP triple mutant, 3×L-IAPP, in which Leu replaced the three aromatic residues (Phe-15, Phe=23 and Tyr-37) was tested. This mutant forms amyloid 9-fold more slowly than wild type human IAPP (Marek at al. 2007). […] The duration of toxicity for all the mutants and for all the conditions with human IAPP wild type correlated with the length of the respective lag phases.

The conditions of data set [14]: Marek at al. 2007; cited from earlier work.

T3 sequence (P05067 672-711): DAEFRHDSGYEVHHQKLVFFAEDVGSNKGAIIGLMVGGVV

Consider `CC(C(=O)O)c1ccc(-c2ccccc2)c(F)c1` (racemic) [Flurbiprofen, (RS)-2-(2-fluorobiphenyl-4-yl)propanoic acid], for which the “effect on human IAPP amyloid formation (thioflavin-T time course)” value in data set [1] (1:1 ratio of human IAPP and compound) is “showed acceleration of amyloid formation”; in [1] (20 to 1 ratio of compound to human IAPP), “strongest effect of accelerating human IAPP amyloid formation”; in data set [1] (20 to 1 ratio of compound to human IAPP, listed as Flurbiprofen racemate), “accelerated islet amyloid formation”; in [1] (20 to 1 ratio of compound to human IAPP, listed as racemic mixture) it was “equally effective”; in [1] (IAPP:compound ratios 1:1 to 1:20, pH 7.4, 20 mM Tris, 25° C.) it was “accelerated islet amyloid formation”. Also, the “protection of β-cells against IAPP induced toxicity (cell viability, AlamarBlue)” value in data set [2] (aliquots at thirty minutes, 12 hours, 48 hours of IAPP time course with and without flurbiprofen) is reported as “protects β-cells against IAPP induced toxicity”. For the same molecule, the “presence and toxic effects of intermediates of amyloid formation” value in [2] was “reduced the presence and toxic effects of intermediates of amyloid formation in a dose dependent fashion”; in data set [2] (listed as Flurbiprofen racemate), “reduced the presence and toxic effects of intermediates of amyloid formation”; in data set [2] (listed as flurbiprofen), “reduced”. For the same molecule, the “β-structure of flurbiprofen induced aggregates (IR)” value in data set [3] is recorded as “rich in β-structure”. Besides, the “seeding of human IAPP amyloid formation by fibers formed with flurbiprofen” value in data set [4] is on record as “extremely effective at seeding amyloid formation by human IAPP”. For the same molecule, in data set [5] (32 and 640 micro molar samples), the “aggregation state of the compound (NMR peak positions and line widths)” value is given as “independent of the concentration of the compound; also recorded: did not aggregate; also recorded: monomeric”. Further, the “hydrodynamic radius (PFG-NMR)” value in data set [5] (640 micromolar, methyl resonance decay curve) is reported as 3.9 Å. Besides, the “induction of amyloid formation by I26P-IAPP (thioflavin-T, TEM)” value in data set [6] was “No increase in fluorescence is detected; also recorded: did not induced amyloid formation; also recorded: does not induce the non-amyloidogenic point mutant I26P-IAPP to form amyloid fibers”. For the same molecule, the “effect on A-beta(1-40) amyloid formation kinetics” value in data set [7] is listed as “did not influence the kinetics of amyloid formation by A-beta(1-40); also recorded: does not accelerate amyloid formation by the Aβ1-40 peptide”. In data set [8], the “effect on amyloid formation by 3XL-IAPP mutant” value was “had the same effect; also recorded: accelerates amyloid formation”. The “acceleration of amyloid formation and reduction of toxic effects of intermediates, WT human IAPP versus mutant IAPP” value in data set [9] was “about equally”. The “effect on amyloid formation by H18Q-IAPP mutant” value in [10] was “accelerates amyloid formation”; in data set [10] (listed as flurbiprofen), “effected the mutant the same way as it did the wild type”. The “toxic effects of amyloid formation in islets” value in data set [11] is “reduces the toxic effects of amyloid formation”. Also, the “survival of islet cell transplants” value in data set [12] is recorded as “enhances the survival of the islet cell transplants”.

For `CC[C@H](C)[C@H](NC(=O)[C@H](C)NC(=O)CNC(=O)[C@H](CC(C)C)NC(=O)[C@H](CC(N)=O)NC(=O)[C@H](CC(N)=O)NC(=O)[C@H](CO)NC(=O)[C@H](CO)NC(=O)[C@H](Cc1c[nH]cn1)NC(=O)[C@@H](NC(=O)[C@H](CC(C)C)NC(=O)[C@H](CC(C)C)NC(=O)[C@H](CC(N)=O)NC(=O)[C@H](C)NC(=O)[C@H](CC(C)C)NC(=O)[C@H](CCCNC(=N)N)NC(=O)[C@H](CCC(N)=O)NC(=O)[C@@H](NC(=O)[C@H](C)NC(=O)[C@@H]1CSSC[C@H](NC(=O)[C@@H](N)CCCCN)C(=O)N[C@@H](CC(N)=O)C(=O)N[C@@H]([C@@H](C)O)C(=O)N[C@@H](C)C(=O)N[C@@H]([C@@H](C)O)C(=O)N1)[C@@H](C)O)C(C)C)C(=O)N[C@@H](CC(C)C)C(=O)N[C@@H](CO)C(=O)N[C@@H](CO)C(=O)N[C@H](C(=O)N[C@@H](CC(N)=O)C(=O)N[C@H](C(=O)NCC(=O)N[C@@H](CO)C(=O)N[C@@H](CC(N)=O)C(=O)N[C@H](C(=O)N[C@@H](CC(C)C)C(N)=O)[C@@H](C)O)C(C)C)[C@@H](C)O` [3×L-IAPP] (H-KCNTATCATQRLANLLVHSSNNLGAILSSTNVGSNTL-NH2; disulfide 2-7), the “onset and duration of toxicity relative to wild type human IAPP” value in [13] is reported as “longer duration of toxicity”. The “amyloid formation slower than wild type human IAPP” value in data set [14] is 9 fold.
